Source: patent US20260265248A1, “NOVEL PD-L1 INHIBITORS” (AFFIRMA BIOTECH S. L., priority 2023, published 2026)

biological target: T1, PD-1/PD-L1 (Homo sapiens, UniProt Q9NZQ7); assay: PD1-PDL1 HTRF assay; details: PD-1/PD-L1 homogenous time-resolved fluorescence (HTRF) binding assay; Tag1-PDL1 5 nM, Tag2-PD1 50 nM
T1 construct: purchased CisBio
Text: The CisBio HTRF assay kit, purchased from CisBio only, was employed to determine the IC50 values of compounds. The PD1-PDL1 HTRF assay measures the interactions between the two proteins, PD1 and PDL1. The interaction is detected by using anti-Tag1 labeled with Europium (HTRF donor) which binds to PDL1 and anti-Tag2 labeled with XL665 (HTRF acceptor) which binds to PD1. When the two antibodies are in proximity, the excitation of the donor fluorophore results in FRET emission from the acceptor fluorophore. The presence of inhibitors for such an interaction result in reduction of HTRF signal.
The assay was conducted in 96-well white assay plates. All the reagents, including Tag1-PDL1, Tag2-PD1, Anti-Tag1-PDL1, Anti-Tag2-PD1 were thawed and diluted with PPI Europium Detection buffer to achieve the desired concentration as per the manufacturer's protocol. A 1000 μM stock solution of test inhibitors was prepared in DMSO. The stock solution was diluted in DMSO to prepare 8 concentrations (1000-0.001 μM). These stock solutions were further diluted in PPI Europium detection buffer to prepare 8 working stock solutions (100-0.0001 μM). To the 96-well plate, 2 μL of the test inhibitor working stock solutions were added followed by 4 μL of Tag1-PDL1 (5 nM) and 4 μL of Tag2-PD1 (50 nM). The plate was incubated at room temperature for 15 min. Subsequently, 10 μL of pre-mixed Anti-Tag1-PDL1 and Anti-Tag2-PD1 solution was added. The plate was sealed and incubated at room temperature for 1 h. The HTRF signal was read on Perkin Elmer Envision plate reader using excitation wavelength of 320 nm, emission wavelengths of 620 nm and 665 nm. Results were obtained by calculating the ratio of signal from acceptor at 665 nm to that of signal from donor at 620 nm multiplied by […]. The IC50 values were determined by the Hill equation using GraphPad Prism software.

T1 sequence (Q9NZQ7 19-238 limits assumed): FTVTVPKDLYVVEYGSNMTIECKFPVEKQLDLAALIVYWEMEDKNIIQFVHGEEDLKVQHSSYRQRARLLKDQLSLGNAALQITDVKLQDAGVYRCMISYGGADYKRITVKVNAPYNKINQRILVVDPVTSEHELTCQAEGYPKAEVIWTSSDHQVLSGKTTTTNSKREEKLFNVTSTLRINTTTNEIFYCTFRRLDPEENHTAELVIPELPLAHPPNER

Row | Structure (SMILES) | IC50 [µM]
1 | Cc1c(-c2ccccc2)cccc1-c1ccn2c(-c3ccc(CNC4(C(=O)O)COC4)cc3)cnc2c1 [Example 3, 3-((4-(7-(2-methyl-[1,1′-biphenyl]-3-yl)imidazo[1,2-a]pyridin-3-yl)benzyl)amino)oxetane-3-carboxylic acid] | 0.1 to 1
2 | Cc1c(-c2ccccc2)cccc1-c1ccn2c(-c3ccc(CNC(C)(C)CO)cc3)cnc2c1 [Example 17, 2-methyl-2-((4-(7-(2-methyl-[1,1′-biphenyl]-3-yl)imidazo[1,2-a]pyridin-3-yl)benzyl)amino)propan-1-ol] | 0.1 to 1
3 | Cc1c(-c2ccc3c(c2)OCCO3)cccc1-c1ccn2c(-c3ccc(CN4CC(C(=O)O)C4)cc3)cnc2c1 [Example 25, 1-(4-(7-(3-(2,3-dihydrobenzo[b][1,4]dioxin-6-yl)-2-methylphenyl)imidazo[1,2-a]pyridin-3-yl)benzyl)azetidine-3-carboxylic acid] | 0.1 to 1
4 | Cc1c(-c2ccccc2)cccc1-c1ccn2c(C#CCN3CCC[C@@H]3C(=O)O)cnc2c1 [Example 50, (3-(7-(2-methyl-[1,1′-biphenyl]-3-yl)imidazo[1,2-a]pyridin-3-yl)prop-2-yn-1-yl)-D-proline] | 0.1 to 1
5 | Cc1c(-c2ccccc2)cccc1-c1ccn2c(-n3ccc(C(=O)NCCC(=O)O)n3)cnc2c1 [Example 47, N 3-(1-(7-(2-methyl-[1,1′-biphenyl]-3-yl)imidazo[1,2-a]pyridin-3-yl)-1H-pyrazole-3-carboxamido)propanoic acid] | 0.1 to 1
6 | Cc1c(-c2ccccc2)cccc1-c1ccn2c(-c3ccc(CN4CCC[C@@H]4C(=O)O)cc3)nnc2c1 [Example 58, (4-(7-(2-methyl-[1,1′-biphenyl]-3-yl)-[1,2,4]triazolo[4,3-a]pyridin-3-yl)benzyl)-D-proline] | 0.01 to 0.1
7 | Cc1c(-c2ccccc2)cccc1-c1ccn2c(-c3ccc(CN[C@H](C(=O)O)C(C)C)cc3)cnc2c1 [Example 9, (4-(7-(2-methyl-[1,1′-biphenyl]-3-yl)imidazo[1,2-a]pyridin-3-yl)benzyl)valine] | 0.1 to 1
8 | Cc1c(Nc2nccc3cc(CNCCO)cnc23)cccc1-c1cccc(-c2ccn3c(-c4ccc(CNCCO)cc4)nnc3c2)c1C [Example 84, 2-((4-(7-(3′-((3-(((2-hydroxyethyl)amino)methyl)-1,7-naphthyridin-8-yl)amino)-2,2′-dimethyl-[1,1′-biphenyl]-3-yl)-[1,2,4]triazolo[4,3-a]pyridin-3-yl)benzyl)amino)ethan-1-ol] | ≤ 0.01
9 | Cc1c(-c2ccc3c(c2)OCCO3)cccc1-c1ccn2c(-c3ccc(CNCCC(=O)O)cc3)nnc2c1 [Example 61, 3-((4-(7-(3-(2,3-dihydrobenzo[b][1,4]dioxin-6-yl)-2-methylphenyl)-[1,2,4]triazolo[4,3-a]pyridin-3-yl)benzyl)amino)propanoic acid] | 0.1 to 1
10 | Cc1c(-c2ccccc2)cccc1-c1ccn2c(-c3ccc(CN4CCC[C@H]4C(=O)O)cc3)cnc2c1 [Example 2, (4-(7-(2-methyl-[1,1′-biphenyl]-3-yl)imidazo[1,2-a]pyridin-3-yl)benzyl)proline] | 0.01 to 0.1
11 | Cc1c(-c2ccccc2)cccc1-c1ccn2c(-c3ccc(CNCCS(=O)(=O)O)cc3)cnc2c1 [Example 19, 2-((4-(7-(2-methyl-[1,1′-biphenyl]-3-yl)imidazo[1,2-a]pyridin-3-yl)benzyl)amino)ethane-1-sulfonic acid] | 0.1 to 1
12 | Cc1c(-c2ccccc2)cccc1-c1ccn2c(-c3ccc(CNCCC(=O)O)cc3)cnc2c1 [Example 18, 3-((4-(7-(2-methyl-[1,1′-biphenyl]-3-yl)imidazo[1,2-a]pyridin-3-yl)benzyl)amino)propanoic acid] | 0.1 to 1
13 | Cc1c(Nc2nccc3cc(CN4CC[C@@H](O)C4)cnc23)cccc1-c1cccc(-c2ccn3c(-c4ccc(CN5CCC[C@@H]5C(=O)O)cc4)nnc3c2)c1C [Example 80, (4-(7-(3′-((3-(((R)-3-hydroxypyrrolidin-1-yl)methyl)-1,7-naphthyridin-8-yl)amino)-2,2′-dimethyl-[1,1′-biphenyl]-3-yl)-[1,2,4]triazolo[4,3-α]pyridin-3-yl)benzyl)-D-proline] | ≤ 0.01
14 | OCCNCc1ccc(-c2cccc(-c3cccc(-c4ccn5c(-c6ccc(CNCCO)cc6)nnc5c4)c3Cl)c2Cl)cc1 [Example 66, 2-(((2′,2″-dichloro-3″-(3-(4-(((2-hydroxyethyl)amino)methyl)phenyl)-[1,2,4]triazolo[4,3-a]pyridin-7-yl)-[1,1′:3′,1″-terphenyl]-4-yl)methyl)amino)ethan-1-ol] | 0.01 to 0.1
15 | Cc1c(-c2ccccc2)cccc1-c1ccn2c(-c3ccc(CN4CCCCC4C(=O)O)cc3)nnc2c1 (centres unmarked) [Example 52, 1-(4-(7-(2-methyl-[1,1′-biphenyl]-3-yl)-[1,2,4]triazolo[4,3-a]pyridin-3-yl)benzyl)piperidine-2-carboxylic acid] | 0.1 to 1
16 | Cc1c(-c2ccc(CNCCO)cc2)cccc1-c1cccc(-c2ccn3nc(CNCCO)nc3c2)c1C [Example 98, 2-(((7-(4″-(((2-hydroxyethyl)amino)methyl)-2,2′-dimethyl-[1,1′:3′,1″-terphenyl]-3-yl)-[1,2,4]triazolo[1,5-a]pyridin-2-yl)methyl)amino)ethan-1-ol] | 0.01 to 0.1
17 | Cc1c(-c2ccc(CNCCO)cc2)cccc1-c1cccc(-c2ccn3nc(CNC[C@@H]4CCC(=O)N4)nc3c2)c1C [Example 102, (S)-5-((((7-(4″-(((2-hydroxyethyl)amino)methyl)-2,2′-dimethyl-[1,1′:3′,1″-terphenyl]-3-yl)-[1,2,4]triazolo[1,5-a]pyridin-2-yl)methyl)amino)methyl) pyrrolidin-2-one] | 0.01 to 0.1
18 | Cc1c(-c2ccc(CNC[C@@H]3CCC(=O)N3)cc2)cccc1-c1cccc(-c2ccn3nc(CNC[C@@H]4CCC(=O)N4)nc3c2)c1C [Example 99, (S)-5-((((21,2″-dimethyl-3″-(2-(((((S)-5-oxopyrrolidin-2-yl)methyl)amino)methyl)-[1,2,4]triazolo[1,5-a]pyridin-7-yl)-[1,1′:3′,1″-terphenyl]-4-yl)methyl)amino)methyl)pyrrolidin-2-one] | ≤ 0.01
19 | CC(=O)NCCNCc1ccc(-c2cccc(-c3cccc(-c4ccn5nc(CNCCNC(C)=O)nc5c4)c3Cl)c2Cl)cc1 [Example 109, N-(2-(((7-(4″-(((2-acetamidoethyl)amino)methyl)-2,2′-dichloro-[1,1′:3′,1″-terphenyl]-3-yl)-[1,2,4]triazolo[1,5-a]pyridin-2-yl)methyl)amino)ethyl)acetamide] | ≤ 0.01
20 | Cc1c(NC(=O)c2ccc(CNCCO)cn2)cccc1-c1cccc(-c2ccn3c(-c4ccc(CN5CCC[C@H]5C(=O)O)cc4)nnc3c2)c1C [Example 69, (4-(7-(31-(5-(((2-hydroxyethyl)amino)methyl)picolinamido)-2,2′-dimethyl-[1,1′-biphenyl]-3-yl)-[1,2,4]triazolo [4,3-α]pyridin-3-yl)benzyl)-L-proline] | ≤ 0.01
21 | Cc1c(-c2ccccc2)cccc1-c1ccn2c(-c3ccc(CNC4(C(=O)O)CCC4)cc3)cnc2c1 [Example 5, 1-((4-(7-(2-methyl-[1,1′-biphenyl]-3-yl)imidazo[1,2-a]pyridin-3-yl)benzyl)amino)cyclobutane-1-carboxylic acid] | 0.1 to 1
22 | Cc1c(-c2ccc3c(c2)OCCO3)cccc1-c1ccn2c(-c3ccc(CN4CCC[C@@H]4C(=O)O)cc3)cnc2c1 [Example 27, (4-(7-(3-(2,3-dihydrobenzo[b][1,4]dioxin-6-yl)-2-methylphenyl)imidazo[1,2-a]pyridin-3-yl)benzyl)-D-proline] | 0.1 to 1
23 | COc1cc(-c2cccc(-c3cccc(-c4ccn5c(-c6ccc(CNCCO)cc6)nnc5c4)c3C)c2C)ccc1CNCCO [Example 78, 2-((4-(7-(4″-(((2-hydroxyethyl)amino)methyl)-3″-methoxy-2,2′-dimethyl-[1,1′:3′,1″-terphenyl]-3-yl)-[1,2,4]triazolo[4,3-α]pyridin-3-yl)benzyl)amino)ethan-1-ol] | ≤ 0.01
24 | Cc1c(-c2ccccc2)cccc1-c1ccn2c(-c3ccc(CNCC(O)CC(=O)O)cc3)cnc2c1 (centres unmarked) [Example 14, 3-hydroxy-4-((4-(7-(2-methyl-[1,1′-biphenyl]-3-yl)imidazo[1,2-a]pyridin-3-yl)benzyl)amino) butanoic acid] | 0.1 to 1
25 | Cc1c(NC(=O)c2ccc(CNCCO)cn2)cccc1-c1cccc(-c2ccn3nc(CNCCO)nc3c2)c1C [Example 100, 5-(((2-hydroxyethyl)amino)methyl)-N-(3′-(2-(((2-hydroxyethyl)amino)methyl)-[1,2,4]triazolo[1,5-a]pyridin-7-yl)-2,2′-dimethyl-[1,1′-biphenyl]-3-yl)picolinamide] | ≤ 0.01
26 | Cc1c(-c2ccc(CNCCO)cc2)cccc1-c1cccc(-c2ccn3c(NCCO)nnc3c2)c1C [Example 85, 2-(((3″-(3-((2-hydroxyethyl)amino)-[1,2,4]triazolo[4,3-a]pyridin-7-yl)-2′,2″-dimethyl-[1,1′:3′,1″-terphenyl]-4-yl)methyl)amino)ethan-1-ol] | 0.1 to 1
